Measured values published in the CheMixHub drug solubility set.

Test: xn = mol fraction of the nth substance listed, in the solute-free solvent

O=C(O)c1ccc(C(=O)O)o1 + O + COCCOCCOC
solubility (g/100 g solution)
Conditions | x2 = 0.1 | x2 = 0.2 | x2 = 0.3 | x2 = 0.4 | x2 = 0.5 | x2 = 0.6 | x2 = 0.7 | x2 = 0.8 | x2 = 0.9
303.15 K | 1.37 | 2.07 | 2.83 | 4.05 | 5.13 | 6.23 | 6.17 | 5.55 | 3.4
308.15 K | 1.42 | 2.15 | 2.96 | 4.22 | 5.35 | 6.45 | 6.42 | 5.78 | 3.72
313.15 K | 1.47 | 2.23 | 3.09 | 4.4 | 5.58 | 6.69 | 6.69 | 6.02 | 4.05
318.15 K | 1.53 | 2.34 | 3.23 | 4.59 | 5.79 | 6.96 | 6.97 | 6.3 | 4.34
323.15 K | 1.59 | 2.46 | 3.37 | 4.79 | 6.03 | 7.25 | 7.28 | 6.59 | 4.64
328.15 K | 1.67 | 2.56 | 3.53 | 5 | 6.29 | 7.62 | 7.59 | 6.96 | 4.91
333.15 K | 1.74 | 2.68 | 3.71 | 5.23 | 6.58 | 8.03 | 7.93 | 7.36 | 5.21
338.15 K | 1.84 | 2.83 | 3.88 | 5.46 | 6.96 | 8.47 | 8.33 | 7.78 | 5.51
343.15 K | 1.92 | 2.94 | 4.01 | 5.62 | 7.24 | 8.75 | 8.61 | 8.14 | 5.75
348.15 K | 2 | 3.1 | 4.17 | 5.84 | 7.52 | 9.16 | 9.15 | 8.46 | 6.05
353.15 K | 2.07 | 3.25 | 4.3 | 6.03 | 7.75 | 9.47 | 9.63 | 8.76 | 6.31

Oc1ccc(Cl)c2cccnc12 + CCOCCO + CCO
solubility (g/100 g solution)
Conditions | 278.15 K | 283.15 K | 288.15 K | 293.15 K | 298.15 K | 303.15 K | 308.15 K | 313.15 K | 318.15 K | 323.15 K
x2 = 0.1134 | 1.08 | 1.36 | 1.64 | 1.98 | 2.41 | 2.88 | 3.44 | 4.07 | 4.85 | 5.76
x2 = 0.2542 | 1.61 | 1.9 | 2.21 | 2.69 | 3.17 | 3.76 | 4.43 | 5.22 | 6.15 | 7.04
x2 = 0.434 | 2.17 | 2.57 | 2.99 | 3.57 | 4.14 | 4.77 | 5.59 | 6.57 | 7.64 | 8.85
x2 = 0.6716 | 2.81 | 3.34 | 3.83 | 4.5 | 5.16 | 6.07 | 6.97 | 8.03 | 9.21 | 10.5

Nc1cncc(Cl)n1 + CC(O)CO + O
solubility (g/100 g solution)
Conditions | 278.15 K | 283.15 K | 288.15 K | 293.15 K | 298.15 K | 303.15 K | 308.15 K | 313.15 K | 318.15 K | 323.15 K
x2 = 0.02564 | – | – | – | – | – | – | – | – | – | 0.0333
x2 = 0.0559 | – | – | – | – | – | – | – | – | – | 0.0456
x2 = 0.09214 | 0.064 | 0.0784 | 0.093 | 0.112 | 0.133 | 0.158 | 0.185 | 0.216 | 0.25 | 0.292
x2 = 0.1364 | 0.0887 | 0.109 | 0.129 | 0.156 | 0.184 | 0.218 | 0.255 | 0.297 | 0.343 | 0.401
x2 = 0.1915 | 0.112 | 0.137 | 0.166 | 0.2 | 0.239 | 0.281 | 0.33 | 0.384 | 0.445 | 0.521
x2 = 0.2621 | 0.135 | 0.168 | 0.206 | 0.251 | 0.298 | 0.351 | 0.413 | 0.48 | 0.555 | 0.649
x2 = 0.3559 | 0.156 | 0.196 | 0.237 | 0.29 | 0.345 | 0.406 | 0.479 | 0.557 | 0.644 | 0.757
x2 = 0.4865 | 0.159 | 0.205 | 0.253 | 0.308 | 0.371 | 0.435 | 0.512 | 0.599 | 0.694 | 0.815
x2 = 0.6806 | 0.159 | 0.201 | 0.247 | 0.307 | 0.365 | 0.431 | 0.508 | 0.593 | 0.688 | 0.814

O=C(O)c1ccc(C(=O)O)o1 + C1CCOC1 + O
solubility (g/100 g solution)
Conditions | 293.15 K | 298.15 K | 303.15 K | 308.15 K | 313.15 K | 318.15 K | 323.15 K | 328.15 K | 333.15 K
x2 = 0.1 | 1.53 | 1.63 | 1.73 | 1.9 | 2.08 | 2.35 | 2.63 | 2.88 | 3.15
x2 = 0.2 | 3.7 | 3.93 | 4.22 | 4.48 | 4.77 | 5.08 | 5.38 | 5.73 | 6.11
x2 = 0.3 | 4.89 | 5.24 | 5.6 | 5.94 | 6.31 | 6.69 | 7.1 | 7.45 | 7.84
x2 = 0.4 | 6.39 | 6.62 | 6.87 | 7.22 | 7.6 | 7.91 | 8.25 | 8.62 | 9.02
x2 = 0.5 | 6.7 | 6.95 | 7.21 | 7.48 | 7.76 | 8.1 | 8.47 | 8.86 | 9.32
x2 = 0.6 | 6.58 | 6.9 | 7.24 | 7.5 | 7.81 | 8.16 | 8.54 | 9.01 | 9.52
x2 = 0.7 | 6.04 | 6.39 | 6.76 | 7.09 | 7.43 | 7.77 | 8.14 | 8.5 | 8.9
x2 = 0.8 | 4.95 | 5.3 | 5.68 | 5.96 | 6.26 | 6.51 | 6.79 | 7.11 | 7.47
x2 = 0.9 | 3.55 | 3.67 | 3.81 | 3.98 | 4.16 | 4.33 | 4.51 | 4.74 | 4.98

COC1=CC(=O)CC(C)C12Oc1c(Cl)c(OC)cc(OC)c1C2=O (stereo not drawn) + CC(=O)CC(C)C + CC(C)O
solubility (g/100 g solution)
Conditions | 283.15 K | 288.15 K | 293.15 K | 298.15 K | 303.15 K | 308.15 K | 313.15 K | 318.15 K | 323.15 K
x2 = 0.1 | 0.154 | 0.185 | 0.226 | 0.307 | 0.335 | 0.47 | 0.53 | 0.62 | 0.76
x2 = 0.2 | 0.251 | 0.304 | 0.345 | 0.441 | 0.514 | 0.683 | 0.713 | 0.852 | 1.01
x2 = 0.3 | 0.353 | 0.405 | 0.473 | 0.568 | 0.67 | 0.869 | 0.938 | 1.11 | 1.3
x2 = 0.4 | 0.433 | 0.519 | 0.591 | 0.73 | 0.812 | 1.04 | 1.09 | 1.27 | 1.46
x2 = 0.5 | 0.533 | 0.589 | 0.688 | 0.841 | 0.939 | 1.19 | 1.23 | 1.42 | 1.62
x2 = 0.6 | 0.595 | 0.655 | 0.751 | 0.902 | 1.03 | 1.27 | 1.33 | 1.5 | 1.72
x2 = 0.7 | 0.642 | 0.758 | 0.833 | 0.943 | 1.08 | 1.31 | 1.37 | 1.58 | 1.77
x2 = 0.8 | 0.675 | 0.753 | 0.823 | 0.973 | 1.1 | 1.33 | 1.39 | 1.59 | 1.79
x2 = 0.9 | 0.675 | 0.727 | 0.817 | 0.955 | 1.1 | 1.29 | 1.35 | 1.51 | 1.68
